# Results published in patent US20220325245A1 (Board of Regents, The University of Texas System, priority 2019, published 2022).
# Read-outs that look alike come from different tables or passages of the source.
# Columns and labels:
# NT CB-NK cells = assay: Dimerizer effect on non-transduced cells (annexin-V/7AAD staining); format: cell-based; conditions: 10 nM dimerizer
# Text: iC9/CAR.19/IL15+ CB-NK cells are eliminated after activation of the suicide gene by exposure to a small-molecule dimerizer. To counteract the possibility of excessive toxicity mediated by the release of inflammatory cytokines by transduced CB-NK cells or uncontrolled NK cell growth, we incorporated a suicide gene based on the inducible caspase-9 gene in the construct (Di et al., 2011). […] The suicide gene was also effective in vivo.
# [1] = cited from earlier work
# GVHD = conditions: patients who had received Capsase-9+ T cells; cited from earlier work
# CLL = conditions: alone or in combination with a corticosteroid; cited from earlier work
# [2] = cited from earlier work; remark: listed apart in the source
# [3] = target: CD19 on CD19+ Raji cells and primary CLL cells (UniProt P15391); assay: cell-based or functional assay
# UniProt P15391, sequence (P15391 20-556 limits assumed): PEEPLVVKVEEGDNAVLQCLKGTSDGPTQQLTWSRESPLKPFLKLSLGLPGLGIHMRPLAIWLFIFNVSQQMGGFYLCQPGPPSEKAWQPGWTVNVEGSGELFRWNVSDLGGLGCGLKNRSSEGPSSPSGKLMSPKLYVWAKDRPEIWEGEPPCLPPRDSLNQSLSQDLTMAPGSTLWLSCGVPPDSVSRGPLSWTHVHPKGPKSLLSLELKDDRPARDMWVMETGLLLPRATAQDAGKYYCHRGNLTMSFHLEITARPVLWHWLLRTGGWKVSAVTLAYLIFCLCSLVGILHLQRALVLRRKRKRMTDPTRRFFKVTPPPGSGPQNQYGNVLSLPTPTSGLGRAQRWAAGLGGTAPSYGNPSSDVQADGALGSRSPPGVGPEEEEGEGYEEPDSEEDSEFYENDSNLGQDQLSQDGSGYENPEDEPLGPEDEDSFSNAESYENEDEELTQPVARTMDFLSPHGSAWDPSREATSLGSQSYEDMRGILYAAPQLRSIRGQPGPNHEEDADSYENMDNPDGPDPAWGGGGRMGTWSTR
compound,measurement,setting,value
CC[C@H](C(=O)N1CCCC[C@H]1C(=O)O[C@H](CCc1ccc(OC)c(OC)c1)c1cccc(OCC(=O)NCCNC(=O)COc2cccc([C@@H](CCc3ccc(OC)c(OC)c3)OC(=O)[C@@H]3CCCCN3C(=O)[C@@H](CC)c3cc(OC)c(OC)c(OC)c3)c2)c1)c1cc(OC)c(OC)c(OC)c1 [AP1903],viability of NT CB-NK cells,NT CB-NK cells,no effect
same,plasma concentrations,[1]; 0.01 mg/kg to 1.0 mg/kg dose range,0.01 to 1.275 µg/mL
same,"plasma level, percent of maximum",[1]; 0.5 hrs post dose,18%
same,"plasma level, percent of maximum",[1]; 2 hrs post dose,7%
same,time to response of GVHD,GVHD,24 to 48 h
O=C(O)CCCc1ccc(N(CCCl)CCCl)cc1 [chlorambucil],complete remission rates,CLL,5-20%
same,overall response rate,CLL,50-70%
RhIL-15: exogenous recombinant human IL-15,maximum serum concentration (Cmax),[2]; 0.3 μg/kg per day,"1,260±350 pg/mL"
same,maximum serum concentration (Cmax),[2]; 1.0 μg/kg per day,"15,900±1,900 pg/mL"
same,maximum serum concentration (Cmax),[2]; 3.0 μg/kg per day,"43,800±18,300 pg/mL"
same,dose-limiting toxicities,[2]; 3.0 and 1.0 μg/kg per day,"grade 3 hypotension, thrombocytopenia, and elevations of ALT and AST"
same,maximum-tolerated dose,[2]; bolus infusions for 12 consecutive days,0.3 μg/kg per day
same,immune cell activation,[2]; patients,"activate NK cells, monocytes, γδ, and CD8 T cells"
"anti-CD19 chimeric antigen receptor (scFv against CD19, human IgG CH2-CH3 hinge, CD28 transmembrane domain, CD28.CD3zeta signaling endodomain) expressed on cord blood NK cells from the iC9/CAR.19/IL15 retroviral vector",IL15 release in culture supernatant with CD19+ CLL B cells (pg/mL/10^6 cells),[3],27.6
